Measurements reported in paper PMC3223389 (Frontiers in Pharmacology, 2011).

Target: T1, P2X2/3 receptors (Homo sapiens, UniProt P56373+Q9UBL9)
T1 sequence (Q9UBL9 1-471): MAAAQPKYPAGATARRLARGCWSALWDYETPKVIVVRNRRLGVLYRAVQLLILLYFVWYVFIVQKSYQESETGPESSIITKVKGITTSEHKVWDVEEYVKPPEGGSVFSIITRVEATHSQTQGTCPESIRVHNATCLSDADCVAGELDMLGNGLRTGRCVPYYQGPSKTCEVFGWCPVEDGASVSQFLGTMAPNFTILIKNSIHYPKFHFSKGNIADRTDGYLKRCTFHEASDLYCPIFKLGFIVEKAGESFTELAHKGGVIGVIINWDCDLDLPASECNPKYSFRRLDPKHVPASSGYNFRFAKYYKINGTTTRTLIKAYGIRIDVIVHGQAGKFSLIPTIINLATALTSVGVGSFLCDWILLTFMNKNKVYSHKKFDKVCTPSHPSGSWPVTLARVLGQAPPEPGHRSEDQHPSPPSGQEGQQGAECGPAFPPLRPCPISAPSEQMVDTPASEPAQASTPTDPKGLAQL
T1 sequence (P56373 1-397): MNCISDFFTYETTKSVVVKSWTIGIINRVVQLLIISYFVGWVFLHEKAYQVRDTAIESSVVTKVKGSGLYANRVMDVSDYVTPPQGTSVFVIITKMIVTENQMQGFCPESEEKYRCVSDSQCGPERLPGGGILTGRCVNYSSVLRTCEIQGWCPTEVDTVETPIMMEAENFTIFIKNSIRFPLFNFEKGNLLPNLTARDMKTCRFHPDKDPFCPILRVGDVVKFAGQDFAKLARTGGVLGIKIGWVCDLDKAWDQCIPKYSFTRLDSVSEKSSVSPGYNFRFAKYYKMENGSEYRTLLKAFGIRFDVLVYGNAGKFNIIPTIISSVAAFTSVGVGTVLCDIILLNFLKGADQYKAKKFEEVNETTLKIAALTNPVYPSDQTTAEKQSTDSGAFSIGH
Experiment: SyncroPatch 96 recording of P2X2/3 receptors in 1321N1 cells
Format: cell-based
Conditions: 10 μM, 1321N1 cell, three applications with intermittent wash steps

Nc1ncnc2c1ncn2[C@@H]1O[C@H](COP(=O)(O)OP(=O)(O)OP(=O)(O)O)[C@@H](O)[C@H]1O [ATP]
activation of P2X2/3 receptors: repeatedly activated
